Values of other authors as cited in PubChem BioAssay AID1259409 (Chemical Carcinogenesis Research Information System (CCRIS), 2018).

System: rodent chemically induced tumor inhibition, incidence and multiplicity
Assay: CCRIS tumor inhibitor studies
Conditions: Carcinogen: 2,2'-DIHYDROXY-DI-N-PROPYLNITROSAMINE, 13147-25-6, Carcinogen: 2,2'-DIHYDROXY-DI-N-PROPYLNITROSAMINE, 13147-25-6, Dose [Inhibitor]: 0, Route [Inhibitor]: ORAL, Species: RAT, Strain/Sex: F344/MALE, Promoter: NONE USED
Source text: The CCRIS database contains chemical records with carcinogenicity, mutagenicity, tumor promotion, and tumor inhibition test results. It was developed by the National Cancer Institute (NCI). Data are derived from studies cited in primary journals, current awareness tools, NCI reports, and other sources. Test results have been reviewed by experts in carcinogenesis and mutagenesis.
CCRIS provides historical information from the years 1985 - 2011. It is no longer updated.
This is an archive assay for CCRIS tumor inhibitor studies.

CCCCCCCCCCCCCCCC(=O)CC(=O)CCCCCCCCCCCCCCC
tumour outcome (control, treated, inhibition, significance) (36909-64-6, N-ETHYL-N-HYDROXYETHYL- NITROSAMINE, 3,2'DIMETHYL-4-A, 36909-64-6, N-ETHYL-N-HYDROXYETHYL- NITROSAMINE, 3,2'DIMETHYL-4-A, 0.2% IN DIET BEGINNING 1 WK POST LAST CARCINOGEN DOSE AND CONTINUING FOR 32 WK (STUDY DURATION: 36 WK), Target Tissue: Type of Lesion: URINARY BLADDER: CARCINOMA, Dose [Carcinogen]: 1000 MG/KG IP DHPN 2X, 1500 MG/KG GAV EHEN 2X AND 75 MG/KG SC DMAB 3X GIVEN OVER THE INITIAL 3 WK AT 3-4 D INTERVALS): 1/14 (7%), 1/15 (7%), 0%, not significant
tumour outcome (control, treated, inhibition, significance) (53609-64-6, N-ETHYL-N-HYDROXYETHYL- NITROSAMINE, 3,2'-DIMETHYL-4-, 53609-64-6, N-ETHYL-N-HYDROXYETHYL- NITROSAMINE, 3,2'-DIMETHYL-4-, 0.2% IN DIET BEGINNING 1 WK POST LAST CARCINOGEN DOSE AND CONTINUING FOR 32 WK (STUDY DURATION: 36 WK), Target Tissue: Type of Lesion: LARGE INTESTINE: ADENOMA, Dose [Carcinogen]: 1000 MG/KG IP DHPN 2X, 1500 MG/KG GAV EHEN 2X AND 75 MG/KG SC DMAB 3X GIVEN OVER THE INITIAL 3 WK PERIOD AT 3-4 D INTERV): 7/14 (50%), 7,15 (47%), 6%, not calculated
outcome (53609-64-6, N-ETHYL-N-HYDROXYETHYL- NITROSAMINE, 3,2'-DIMETHYL-4-, 53609-64-6, N-ETHYL-N-HYDROXYETHYL- NITROSAMINE, 3,2'-DIMETHYL-4-, 0.2% IN DIET BEGINNING 1 WK POST LAST CARCINOGEN DOSE AND CONTINUING FOR 32 WK (STUDY DURATION: 36 WK), Target Tissue: Type of Lesion: URINARY BLADDER: PAPILLOMA, Dose [Carcinogen]: 1000 MG/KG IP DHPN 2X, 1500 MG/KG GAV EHEN 2X AND 75 MG/KG SC DMAB 3X GIVEN OVER THE INITIAL 3 WK PERIOD AT 3-4 D INTERV): 0/14 (0%), 3/15 (20%), -100%, not calculated
tumour outcome (control, treated, inhibition, significance) (53609-64-6, N-ETHYL-N-HYDROXYETHYL- NITROSAMINE, 3,2'-DIMETHYL-4-, 53609-64-6, N-ETHYL-N-HYDROXYETHYL- NITROSAMINE, 3,2'-DIMETHYL-4-, 02% IN DIET BEGINNING 1 WK POST LAST CARCINOGEN DOSE AND CONTINUING FOR 32 WK (STUDY DURATION: 36 WK), Target Tissue: Type of Lesion: LUNG: CARCINOMA, Dose [Carcinogen]: 1000 MG/KG IP DHPN 2X , 1500 MG/KG GAV EHEN 2X AND 75 MG/KG SC DMAB 3X GIVEN OVER THE INITIAL 3 WK PERIOD AT 3-4 D INTER): 1/14 (7%), 3/15 (20%), -186%, not calculated
tumour outcome (control, treated, inhibition, significance) (53609-64-6, N-ETHYL-N-HYDROXYETHYL- NITROSAMINE, 3,2'DIMETHYL-4-A, 53609-64-6, N-ETHYL-N-HYDROXYETHYL- NITROSAMINE, 3,2'DIMETHYL-4-A, 0.2% IN DIET BEGINNING 1 WK POST LAST CARCINOGEN DOSE AND CONTINUING FOR 32 WK (STUDY DURATION: 36 WK), Target Tissue: Type of Lesion: LIVER: HEPATOCELLULAR CARCINOMA, Dose [Carcinogen]: 1000 MG/KG IP DHPN 2X, 1500 MG/KG GAV EHEN 2X AND 75 MG/KG SC DMAB 3X GIVEN OVER THE INITIAL 3 WK AT 3-4 D INTERVALS): 6/14 (43%), 1/15 (7%), 84%, p<0.05
tumour outcome (control, treated, inhibition, significance) (53609-64-6, N-ETHYL-N-HYDROXYETHYLNITROSAMINE, 3,2'-DIMETHYL-1,4-, 53609-64-6, N-ETHYL-N-HYDROXYETHYLNITROSAMINE, 3,2'-DIMETHYL-1,4-, 0.2% IN DIET FOR 4 WK BEGINNING 1 D PRIOR TO FIRST CARCINOGEN DOSE (STUDY DURATION: 36 WK), Target Tissue: Type of Lesion: KIDNEY: ADENOMA, Dose [Carcinogen]: 1000 MG/KG BW DHPN TWICE, 1500 MG/KG EHEN TWICE, 75 MG/KG BW DMAB 3 TIMES, SEQUENTIALLY OVER 3 WK): 6/10 (60%), 7/13 (54%), 10%, not significant
tumour outcome (control, treated, inhibition, significance) (53609-64-6, N-ETHYL-N-HYDROXYETHYLNITROSAMINE, 3,2'-DIMETHYL-1,4-, 53609-64-6, N-ETHYL-N-HYDROXYETHYLNITROSAMINE, 3,2'-DIMETHYL-1,4-, 0.2% IN DIET FOR 4 WK BEGINNING 1 D PRIOR TO FIRST CARCINOGEN DOSE (STUDY DURATION: 36 WK), Target Tissue: Type of Lesion: LUNG: ADENOMA, Dose [Carcinogen]: 1000 MG/KG BW DHPN TWICE, 1500 MG/KG EHEN TWICE, 75 MG/KG BW DMAB 3 TIMES, SEQUENTIALLY OVER 3 WK): 5/10 (50%), 6/13 (46%), 8%, not significant
tumour outcome (control, treated, inhibition, significance) (53609-64-6, N-ETHYL-N-HYDROXYETHYLNITROSAMINE, 3,2'-DIMETHYL-4-AMINO-, 53609-64-6, N-ETHYL-N-HYDROXYETHYLNITROSAMINE, 3,2'-DIMETHYL-4-AMINO-, 0.2% IN DIET FOR 32 WK BEGINNING 1 WK POST CARCINOGEN TREATMENT (STUDY DURATION: 36 WK), Target Tissue: Type of Lesion: KIDNEY: ADENOMA, Dose [Carcinogen]: 1000 MG/KG BW DHPN TWICE, 1500 MG/KG BW EHEN TWICE, 75 MG/KG BW 3 TIMES ADMINISTERED OVER FIRST 3 WK): 6/14 (43%), 5/15 (33%), 23% , not significant
tumour outcome (control, treated, inhibition, significance) (53609-64-6, N-ETHYL-N-HYDROXYETHYLNITROSAMINE, 3,2'-DIMETHYL-4-AMINO-, 53609-64-6, N-ETHYL-N-HYDROXYETHYLNITROSAMINE, 3,2'-DIMETHYL-4-AMINO-, 0.2% IN DIET FOR 32 WK BEGINNING 1 WK POST CARCINOGEN TREATMENT (STUDY DURATION: 36 WK), Target Tissue: Type of Lesion: KIDNEY: NEPHROBLASTOMA, Dose [Carcinogen]: 1000 MG/KG BW DHPN TWICE, 1500 MG/KG BW EHEN TWICE, 75 MG/KG BW 3 TIMES ADMINISTERED OVER FIRST 3 WK): 2/14 (14%), 2/15 (13%), 7%, not significant
tumour outcome (control, treated, inhibition, significance) (53609-64-6, N-ETHYL-N-HYDROXYETHYLNITROSAMINE, 3,2'-DIMETHYL-4-AMINO-, 53609-64-6, N-ETHYL-N-HYDROXYETHYLNITROSAMINE, 3,2'-DIMETHYL-4-AMINO-, 0.2% IN DIET FOR 32 WK BEGINNING 1 WK POST CARCINOGEN TREATMENT (STUDY DURATION: 36 WK), Target Tissue: Type of Lesion: KIDNEY: TRANSITIONAL CELL CARCINOMA, Dose [Carcinogen]: 1000 MG/KG BW DHPN TWICE, 1500 MG/KG BW EHEN TWICE, 75 MG/KG BW 3 TIMES ADMINISTERED OVER FIRST 3 WK): 1/14 (7%), 1/15 (7%), 0%, not significant
